# US20260049088A1, “TRICYCLIC HETEROCYCLIC DERIVATIVES, COMPOSITIONS AND USES THEREOF” (Danatlas Pharmaceuticals Co., Ltd., priority 2023, published 2026)
# pIC50: −log10 of the molar value.
# Target: T1, hPARG (Homo sapiens, UniProt Q86W56)
# T1 construct: made in house; host or cells: E. coli
# Assay: PARG enzymatic activity assay (HTRF)
# Type: biochemical
# Details: C-terminal His6-tag hPARG 65 pM, biotinylated-NAD ribosylated PARP1 substrate 8 nM
# In short: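 His6-tagged hPARG from E. coli (65 pM final) preincubated 60 min RT with compound (10-point 4-fold dilution), then 8 nM biotinylated NAD-ribosylated PARP1 added for 10 min RT in Tris pH 7.4 buffer with EDTA, EGTA, DTT, KCl. HTRF detection (Eu-streptavidin/anti-His XL665, 620/665 nm); IC50 from 4-parameter fit against DMSO and no-enzyme controls.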
# T1 sequence (Q86W56 whole entry): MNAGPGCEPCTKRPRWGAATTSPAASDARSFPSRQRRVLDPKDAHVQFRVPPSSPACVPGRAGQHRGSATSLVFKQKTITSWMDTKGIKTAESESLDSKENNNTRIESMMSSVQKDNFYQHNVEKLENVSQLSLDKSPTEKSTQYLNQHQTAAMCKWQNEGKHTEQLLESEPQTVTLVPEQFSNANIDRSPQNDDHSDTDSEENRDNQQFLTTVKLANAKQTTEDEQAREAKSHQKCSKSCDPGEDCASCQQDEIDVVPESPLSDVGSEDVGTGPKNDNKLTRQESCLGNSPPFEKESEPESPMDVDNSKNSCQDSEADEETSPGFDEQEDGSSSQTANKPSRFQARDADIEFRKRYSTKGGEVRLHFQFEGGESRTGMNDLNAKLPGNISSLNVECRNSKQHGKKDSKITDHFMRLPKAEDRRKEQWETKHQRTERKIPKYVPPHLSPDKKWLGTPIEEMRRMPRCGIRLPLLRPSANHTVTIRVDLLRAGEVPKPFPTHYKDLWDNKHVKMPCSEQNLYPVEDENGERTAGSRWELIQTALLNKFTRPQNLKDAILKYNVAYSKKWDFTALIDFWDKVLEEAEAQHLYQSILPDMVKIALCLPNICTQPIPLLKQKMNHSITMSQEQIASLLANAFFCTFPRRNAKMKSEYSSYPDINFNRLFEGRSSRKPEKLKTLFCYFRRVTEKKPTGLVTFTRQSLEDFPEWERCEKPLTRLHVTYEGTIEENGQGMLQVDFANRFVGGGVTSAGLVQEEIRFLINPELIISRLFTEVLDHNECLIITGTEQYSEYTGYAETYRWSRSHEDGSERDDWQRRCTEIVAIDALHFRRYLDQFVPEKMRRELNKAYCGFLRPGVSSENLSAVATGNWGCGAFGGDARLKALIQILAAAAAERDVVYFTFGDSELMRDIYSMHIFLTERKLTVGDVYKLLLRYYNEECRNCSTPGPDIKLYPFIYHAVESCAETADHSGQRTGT
row,Compound,pIC50
1,"CN1CC2CN(c3ncnc4c3c3ccc(S(=O)(=O)NC5(C#N)CC5)cc3n4-c3nnc(C(F)F)s3)CC2C1 (stereo not shown) [Example 29, N-(1-Cyanocyclopropyl)-9-(5-(difluoromethyl)-1,3,4-thiadiazol-2-yl)-4-(5-methylhexahydropyrrolo[3,4-c]pyrrol-2(1H)-yl)-9H-pyrimido[4,5-b]indole-7-sulfonamide]",≥ 7.00
2,"CN(c1ncnc2c1c1ccc(S(=O)(=O)NC3(C#N)CC3)cc1n2-c1nnc(C(F)F)s1)[C@H]1CCOC1 [Example 70, (S)-N-(1-Cyanocyclopropyl)-9-(5-(difluoromethyl)-1,3,4-thiadiazol-2-yl)-4-(methyl(tetrahydrofuran-3-yl)amino)-9H-pyrimido[4,5-b]indole-7-sulfonamide]",6.00 to 7.00
3,"CN(C[C@@H]1CCOC1)c1ncnc2c1c1ccc(S(=O)(=O)NC3(C#N)CC3)cc1n2-c1nnc(C(F)F)s1 [Example 56, (S)-N-(1-Cyanocyclopropyl)-9-(5-(difluoromethyl)-1,3,4-thiadiazol-2-yl)-4-(methyl((tetrahydrofuran-3-yl)methyl)amino)-9H-pyrimido[4,5-b]indole-7-sulfonamide]",≥ 7.00
4,"N#CC1(NS(=O)(=O)c2ccc3c4c(OCC5CCOC5)ncnc4n(-c4nnc(C(F)F)s4)c3c2)CC1 (stereo not shown) [Example 9, N-(1-Cyanocyclopropyl)-9-(5-(difluoromethyl)-1,3,4-thiadiazol-2-yl)-4-((tetrahydrofuran-3-yl)methoxy)-9H-pyrimido[4,5-b]indole-7-sulfonamide]",≥ 7.00
5,"COCCSc1ncnc2c1c1ccc(S(=O)(=O)NC3(C#N)CC3)cc1n2-c1nnc(C(F)F)s1 [Example 84, N-(1-Cyanocyclopropyl)-9-(5-(difluoromethyl)-1,3,4-thiadiazol-2-yl)-4-((2-methoxyethyl)thio)-9H-pyrimido[4,5-b]indole-7-sulfonamide]",6.00 to 7.00
6,"CCN(CC)[C@@H]1CCN(c2ncnc3c2c2ccc(S(=O)(=O)NC4(C#N)CC4)cc2n3-c2nnc(C(F)F)s2)C[C@@H]1F [Example 33, N-(1-Cyanocyclopropyl)-4-((3S,4R)-4-(diethylamino)-3-fluoropiperidin-1-yl)-9-(5-(difluoromethyl)-1,3,4-thiadiazol-2-yl)-9H-pyrimido[4,5-b]indole-7-sulfonamide]",≥ 7.00
7,"CN1C[C@@H]2C[C@H]1CN2c1ncnc2c1c1ccc(S(=O)(=O)NC3(C#N)CC3)cc1n2-c1nnc(C(F)F)s1 [Example 31, N-(1-Cyanocyclopropyl)-9-(5-(difluoromethyl)-1,3,4-thiadiazol-2-yl)-4-((1S,4S)-5-methyl-2,5-diazabicyclo[2.2.1]heptan-2-yl)-9H-pyrimido[4,5-b]indole-7-sulfonamide]",≥ 7.00
8,"CN(CCN1CCCC1=O)c1ncnc2c1c1ccc(S(=O)(=O)NC3(C#N)CC3)cc1n2-c1nnc(C(F)F)s1 [Example 61, N-(1-Cyanocyclopropyl)-9-(5-(difluoromethyl)-1,3,4-thiadiazol-2-yl)-4-(methyl(2-(2-oxopyrrolidin-1-yl)ethyl)amino)-9H-pyrimido[4,5-b]indole-7-sulfonamide]",6.00 to 7.00
9,"CC(C)C(=O)N1CCN(CCOc2ncnc3c2c2ccc(S(=O)(=O)NC4(C#N)CC4)cc2n3-c2nnc(C(F)F)s2)CC1 [Example 4, N-(1-Cyanocyclopropyl)-9-(5-(difluoromethyl)-1,3,4-thiadiazol-2-yl)-4-(2-(4-isobutyrylpiperazin-1-yl)ethoxy)-9H-pyrimido[4,5-b]indole-7-sulfonamide]",≥ 7.00
10,"N#CC1(NS(=O)(=O)c2ccc3c4c(OCCCCN5CCOCC5)ncnc4n(-c4nnc(C(F)F)s4)c3c2)CC1 [Example 3, N-(1-Cyanocyclopropyl)-9-(5-(difluoromethyl)-1,3,4-thiadiazol-2-yl)-4-(4-morpholinobutoxy)-9H-pyrimido[4,5-b]indole-7-sulfonamide]",≥ 7.00
11,"CN(c1ncnc2c1c1ccc(S(=O)(=O)NC3(C#N)CC3)cc1n2-c1nnc(C(F)F)s1)C1COC1 [Example 58, N-(1-Cyanocyclopropyl)-9-(5-(difluoromethyl)-1,3,4-thiadiazol-2-yl)-4-(methyl(oxetan-3-yl)amino)-9H-pyrimido[4,5-b]indole-7-sulfonamide]",6.00 to 7.00
12,"C[C@@H]1CCCN(c2ncnc3c2c2ccc(S(=O)(=O)NC4(C#N)CC4)cc2n3-c2nnc(C(F)F)s2)C1 [Example 81, (R)-N-(1-Cyanocyclopropyl)-9-(5-(difluoromethyl)-1,3,4-thiadiazol-2-yl)-4-(3-methylpiperidin-1-yl)-9H-pyrimido[4,5-b]indole-7-sulfonamide]",≥ 7.00
13,"CN(CC(=O)N1CCOCC1)c1ncnc2c1c1ccc(S(=O)(=O)NC3(C#N)CC3)cc1n2-c1nnc(C(F)F)s1 [Example 20, N-(1-Cyanocyclopropyl)-9-(5-(difluoromethyl)-1,3,4-thiadiazol-2-yl)-4-(methyl(2-morpholino-2-oxoethyl)amino)-9H-pyrimido[4,5-b]indole-7-sulfonamide]",≥ 7.00
14,"CN(CC1CCCN1C)c1ncnc2c1c1ccc(S(=O)(=O)NC3(C#N)CC3)cc1n2-c1nnc(C(F)F)s1 (stereo not shown) [Example 80, N-(1-Cyanocyclopropyl)-9-(5-(difluoromethyl)-1,3,4-thiadiazol-2-yl)-4-(methyl((1-methylpyrrolidin-2-yl)methyl)amino)-9H-pyrimido[4,5-b]indole-7-sulfonamide]",≥ 7.00

# Further lines, results first:
row,pIC50,Compound
1,6.00 to 7.00,"CN(CCN1CCCS1(=O)=O)c1ncnc2c1c1ccc(S(=O)(=O)NC3(C#N)CC3)cc1n2-c1nnc(C(F)F)s1 [Example 72, N-(1-Cyanocyclopropyl)-9-(5-(difluoromethyl)-1,3,4-thiadiazol-2-yl)-4-((2-(1,1-dioxidoisothiazolidin-2-yl)ethyl)(methyl)amino)-9H-pyrimido [4,5-b]indole-7-sulfonamide]"
2,≥ 7.00,"CN(CCO)c1ncnc2c1c1ccc(S(=O)(=O)NC3(C#N)CC3)cc1n2-c1nnc(C(F)F)s1 [Example 63, N-(1-Cyanocyclopropyl)-9-(5-(difluoromethyl)-1,3,4-thiadiazol-2-yl)-4-((2-hydroxyethyl)(methyl)amino)-9H-pyrimido[4,5-b]indole-7-sulfonamide]"
3,≥ 7.00,"CN1CCN(c2ncnc3c2c2ccc(S(=O)(=O)NC4(C#N)CC4)cc2n3-c2nnc(C(F)F)s2)C[C@@H]1CO [Example 43, (R)-N-(1-Cyanocyclopropyl)-9-(5-(difluoromethyl)-1,3,4-thiadiazol-2-yl)-4-(3-(hydroxymethyl)-4-methylpiperazin-1-yl)-9H-pyrimido[4,5-b]indole-7-sulfonamide]"
4,6.00 to 7.00,"CN(CCn1ccnc1)c1ncnc2c1c1ccc(S(=O)(=O)NC3(C#N)CC3)cc1n2-c1nnc(C(F)F)s1 [Example 59, 4-((2-(1H-Imidazol-1-yl)ethyl)(methyl)amino)-N-(1-cyanocyclopropyl)-9-(5-(difluoromethyl)-1,3,4-thiadiazol-2-yl)-9H-pyrimido[4,5-b]indole-7-sulfonamide]"
5,≥ 7.00,"N#CC1(NS(=O)(=O)c2ccc3c4c(O[C@@H]5CCOC5)ncnc4n(-c4nnc(C(F)F)s4)c3c2)CC1 [Example 8, (R)-N-(1-Cyanocyclopropyl)-9-(5-(difluoromethyl)-1,3,4-thiadiazol-2-yl)-4-((tetrahydrofuran-3-yl)oxy)-9H-pyrimido[4,5-b]indole-7-sulfonamide]"
6,≥ 7.00,"CN(CC1(C#N)CC1)c1ncnc2c1c1ccc(S(=O)(=O)NC3(C#N)CC3)cc1n2-c1nnc(C(F)F)s1 [Example 75, N-(1-Cyanocyclopropyl)-4-(((1-cyanocyclopropyl)methyl)(methyl)amino)-9-(5-(difluoromethyl)-1,3,4-thiadiazol-2-yl)-9H-pyrimido[4,5-b]indole-7-sulfonamide]"
7,≥ 7.00,"N#CC1(NS(=O)(=O)c2ccc3c4c(OCCn5cccn5)ncnc4n(-c4nnc(C(F)F)s4)c3c2)CC1 [Example 12, 4-(2-(1H-Pyrazol-1-yl)ethoxy)-N-(1-cyanocyclopropyl)-9-(5-(difluoromethyl)-1,3,4-thiadiazol-2-yl)-9H-pyrimido[4,5-b]indole-7-sulfonamide]"
8,6.00 to 7.00,"N#CC1(NS(=O)(=O)c2ccc3c4c(OCC5COCCN5)ncnc4n(-c4nnc(C(F)F)s4)c3c2)CC1 (stereo not shown) [Example 92, N-(1-cyanocyclopropyl)-9-(5-(difluoromethyl)-1,3,4-thiadiazol-2-yl)-4-(morpholin-3-ylmethoxy)-9H-pyrimido[4,5-b]indole-7-sulfonamide]"
